Some test systems named below: ACHN; CAKI-1; COLO 205; HCC 2998; HCT-15; HT-29; IGROV-1; KM12; MOLT-4; NCI-H226; NCI-H23; SK-MEL-28; SK-OV-3; U-251; UACC-257; UACC-62; OVCAR-3.
Common to all, as to assay: inhibition of tumour cell growth, NCI panel, 48 h

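48-hour exposure; five concentrations; linearly interpolated endpoints. The concentration for 50% growth inhibition is given as GI50.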 Active and inactive are the calls of the source. Rule as the data show it: active = GI50 up to about 1.1 µM and inactive = higher.

On to `COC(=O)C(=O)C(C(=O)C(=O)Nc1ccccc1C(N)=O)c1nc2ccc([N+](=O)[O-])cc2nc1O` (centres undefined), for which the GI50 with ACHN was > 100 µM (inactive); in the assay on CAKI-1 it was > 100 µM (inactive); with COLO 205, > 100 µM (inactive); in the assay on HCC 2998, > 100 µM (inactive); with HCT-15, above 100 µM; with HT-29, > 100 µM (inactive). Further, the GI50 in the assay with IGROV-1, in the assay on KM12, with MOLT-4, with NCI-H226, with NCI-H23 and in the assay with SK-MEL-28 was > 100 µM (inactive) in each case. In addition, the GI50 in the assay on SK-OV-3, in the assay on U-251, in the assay with UACC-257 and in the assay with UACC-62 was > 100 µM (inactive) throughout.
Regarding `O=C(N/N=C/c1ccccc1O)c1cccc([N+](=O)[O-])c1`, the GI50 in the assay on ACHN is 8.41 µM (inactive); in the assay with COLO 205, 20.9 µM (inactive); with HCC 2998, 30.5 µM (inactive); in the assay on HCT-15, 6.59 µM; with HT-29, 5.93 µM (inactive); with IGROV-1 it was 13.7 µM (inactive). Also, the GI50 is 29.6 µM (inactive) in the assay on KM12; 3.1 µM (inactive) in the assay with MOLT-4; 16.5 µM (inactive) in the assay on NCI-H23; 1.71 µM (inactive) in the assay with OVCAR-3; 25 µM (inactive) in the assay on SK-MEL-28; 15 µM (inactive) with SK-OV-3. Besides, the values for the GI50 in the assay with U-251, in the assay with UACC-257 and with UACC-62 were 26.2 µM (inactive), 9.48 µM (inactive) and 20.7 µM (inactive), respectively.
As to `Cc1c2ccncc2c(C)c2c1[nH]c1ccc(OC(C)C)cc12`, the GI50 with ACHN was 1.29 µM (inactive); with CAKI-1, 1.6 µM (inactive); with COLO 205 it was 1.32 µM (inactive); in the assay on HCC 2998, 2.03 µM (inactive); in the assay on HCT-15 it was 0.984 µM; in the assay with HT-29, 1.32 µM (inactive). In addition, the GI50 is 1.43 µM (inactive) in the assay on IGROV-1; 1.35 µM (inactive) in the assay on KM12; 0.59 µM (active) with MOLT-4; 1.63 µM (inactive) in the assay on NCI-H226; 1.53 µM (inactive) with NCI-H23; 1.61 µM (inactive) in the assay with OVCAR-3. Also, the GI50 in the assay with SK-MEL-28 was 1.66 µM (inactive); in the assay with SK-OV-3 it was 1.42 µM (inactive); in the assay with U-251 it was 1.38 µM (inactive); in the assay with UACC-257, 1.82 µM (inactive).
For `O=C(CC1SC(Nc2ccccc2Cl)=NC1=O)Nc1ccc(Cl)cc1Cl` (centres undefined), the GI50 in the assay on ACHN, in the assay on COLO 205, in the assay on HCC 2998, in the assay with HT-29, in the assay with IGROV-1 and with KM12 was > 100 µM (inactive) in each case. The GI50 in the assay on MOLT-4, with NCI-H226, in the assay on NCI-H23, in the assay on OVCAR-3, with SK-MEL-28 and in the assay with U-251 was > 100 µM (inactive) in each case. The GI50 in the assay with UACC-257 and in the assay with UACC-62 was > 100 µM (inactive) in each case.
Consider `CCc1cc2c(Nc3ccccc3)c3c(nc2s1)CCCC3`, for which the GI50 in the assay with ACHN is 94.2 µM (inactive); with COLO 205 it was > 100 µM (inactive); in the assay on HCC 2998 it was > 100 µM (inactive); with HCT-15, 38.8 µM; in the assay on IGROV-1, > 100 µM (inactive); with KM12 it was > 100 µM (inactive). Besides, the GI50 in the assay with MOLT-4 is 3.23 µM (inactive); with OVCAR-3, 6.56 µM (inactive); in the assay on SK-MEL-28 it was > 100 µM (inactive); in the assay on SK-OV-3 it was > 100 µM (inactive); in the assay with U-251 it was 22 µM (inactive); with UACC-257 it was > 100 µM (inactive). Moreover, the GI50 in the assay on UACC-62 is 15.3 µM (inactive).
As for `CN1N=C(Nc2ccccc2)Sc2c1cnn(-c1ccccc1)c2=O`, the GI50 was > 100 µM (inactive) in the assay on ACHN; > 100 µM (inactive) with COLO 205; > 100 µM (inactive) in the assay on HCC 2998; above 100 µM in the assay on HCT-15; > 100 µM (inactive) in the assay on HT-29; > 100 µM (inactive) with IGROV-1. Moreover, the GI50 in the assay on KM12 was > 100 µM (inactive); in the assay with MOLT-4, > 100 µM (inactive); with NCI-H23 it was 66.1 µM (inactive); in the assay on OVCAR-3 it was 28.1 µM (inactive); with SK-OV-3, > 100 µM (inactive); in the assay on U-251 it was > 100 µM (inactive). The figures for the GI50 in the assay with UACC-257 and with UACC-62 were > 100 µM (inactive) and 40 µM (inactive), respectively.
As for `COc1ccc(-c2cc(=O)c3c(O)c(OC)c(O)c(OC)c3o2)cc1OC`, the GI50 in the assay on ACHN was 33 µM (inactive); with COLO 205 it was 92.3 µM (inactive); in the assay on HCC 2998 it was > 100 µM (inactive); in the assay on HCT-15, 63.7 µM; in the assay on HT-29 it was > 100 µM (inactive); in the assay with IGROV-1, 84.3 µM (inactive). For the same compound, the GI50 is 42.3 µM (inactive) in the assay with MOLT-4; 22.2 µM (inactive) in the assay with NCI-H226; > 100 µM (inactive) in the assay with NCI-H23; > 100 µM (inactive) in the assay on SK-MEL-28; 80 µM (inactive) in the assay with SK-OV-3; 49.9 µM (inactive) with U-251. Further, the GI50 was > 100 µM (inactive) with UACC-257 and 47.4 µM (inactive) with UACC-62.
Turning to `COC(=O)C12CC3CC(C1)CC(C(=O)OC)(C3)C2`, the GI50 in the assay with ACHN is > 100 µM (inactive); in the assay on CAKI-1 it was > 100 µM (inactive); with HCC 2998, > 100 µM (inactive); in the assay with HCT-15 it was above 100 µM; with HT-29, > 100 µM (inactive); with IGROV-1, > 100 µM (inactive). The GI50 in the assay on KM12, in the assay on MOLT-4, in the assay with NCI-H23, with OVCAR-3, in the assay with SK-MEL-28 and in the assay with SK-OV-3 was > 100 µM (inactive) throughout. Further, the GI50 in the assay on U-251, in the assay on UACC-257 and with UACC-62 was > 100 µM (inactive) in each case.
In the case of `CCCC1=C(CC)C(C(=O)Nc2c(C)cccc2C)=NC(S)N1` (centres undefined), the GI50 is > 100 µM (inactive) in the assay with ACHN; > 100 µM (inactive) in the assay with CAKI-1; > 100 µM (inactive) in the assay on COLO 205; above 100 µM in the assay on HCT-15; > 100 µM (inactive) in the assay with HT-29; > 100 µM (inactive) in the assay with IGROV-1. The GI50 in the assay with KM12, in the assay on MOLT-4, with NCI-H226, in the assay on NCI-H23, in the assay with OVCAR-3 and in the assay on SK-MEL-28 was > 100 µM (inactive) each time. Also, the GI50 with U-251, with UACC-257 and with UACC-62 was > 100 µM (inactive) each time.
Regarding `Cc1ccc(S(=O)(=O)NC(=O)C2(Br)S(=O)(=O)OCCOS2(=O)=O)cc1`, the GI50 in the assay with ACHN is > 100 µM (inactive); in the assay on COLO 205, > 100 µM (inactive); with HCC 2998 it was > 100 µM (inactive); with HCT-15, above 100 µM; in the assay on HT-29, > 100 µM (inactive); in the assay on IGROV-1, > 100 µM (inactive). Besides, the GI50 with MOLT-4, with NCI-H226, in the assay with NCI-H23, in the assay with OVCAR-3, with SK-MEL-28 and with SK-OV-3 was > 100 µM (inactive) throughout. Moreover, the GI50 with U-251, in the assay with UACC-257 and in the assay with UACC-62 was > 100 µM (inactive) throughout.
Regarding `C1=CC2CCC1CN2CCC1CNc2ccccc21` (centres undefined), the GI50 was > 100 µM (inactive) in the assay with ACHN; > 10 µM (inactive) in the assay on COLO 205; > 100 µM (inactive) in the assay on HCC 2998; > 100 µM (inactive) with HT-29; > 100 µM (inactive) in the assay on IGROV-1; > 100 µM (inactive) in the assay on KM12. For the same compound, the GI50 with MOLT-4, in the assay on NCI-H226, in the assay with NCI-H23, with OVCAR-3, in the assay with SK-MEL-28 and with SK-OV-3 was > 100 µM (inactive) throughout. Moreover, the GI50 in the assay with U-251, in the assay with UACC-257 and with UACC-62 was > 100 µM (inactive) in each case.
In the case of `COc1ccc(C2N3CCCCC3[C@@H]3c4[nH]c5ccccc5c4CCN23)c(OC)c1` (some centres undefined), the GI50 with ACHN was 23.6 µM (inactive); with CAKI-1 it was 52 µM (inactive); with COLO 205, 18.2 µM (inactive); in the assay on HCT-15, 28 µM; with HT-29, 15.8 µM (inactive); in the assay on IGROV-1, 45.1 µM (inactive). In addition, the GI50 was 21 µM (inactive) with MOLT-4; 22.6 µM (inactive) in the assay with NCI-H23; 24.6 µM (inactive) with OVCAR-3; 19.1 µM (inactive) in the assay with SK-MEL-28; 30.4 µM (inactive) in the assay on SK-OV-3; 28.4 µM (inactive) with U-251. The GI50 in the assay on UACC-257 was 26.2 µM (inactive); in the assay with UACC-62, 16.3 µM (inactive).
Turning to `COc1cccc(-c2cc(=O)c3cc(C)c(C)c(C(=O)O)c3o2)c1`, the GI50 in the assay on ACHN is > 100 µM (inactive); with COLO 205, > 100 µM (inactive); with HCC 2998 it was > 100 µM (inactive); in the assay with HCT-15 it was above 100 µM; with HT-29 it was > 100 µM (inactive); in the assay with IGROV-1, > 100 µM (inactive). Further, the GI50 in the assay with KM12, in the assay on MOLT-4, in the assay on NCI-H23, in the assay on OVCAR-3, in the assay with SK-MEL-28 and with SK-OV-3 was > 100 µM (inactive) in each case. Moreover, the GI50 in the assay with U-251, in the assay on UACC-257 and in the assay with UACC-62 was > 100 µM (inactive) throughout.
`O=C1OC(c2ccccc2)=N/C1=C\c1cc(Cl)ccc1Cl`: the GI50 was > 100 µM (inactive) in the assay with ACHN; > 100 µM (inactive) with COLO 205; > 100 µM (inactive) with HCC 2998; 16.4 µM in the assay on HCT-15; > 100 µM (inactive) with HT-29; > 100 µM (inactive) in the assay on IGROV-1. Moreover, the GI50 was 74.1 µM (inactive) with KM12; 23 µM (inactive) in the assay on MOLT-4; > 100 µM (inactive) with NCI-H23; > 100 µM (inactive) with SK-MEL-28; 70.8 µM (inactive) in the assay with U-251; > 100 µM (inactive) with UACC-257. In the assay with UACC-62, the GI50 was > 100 µM (inactive).

The record behind these values is ChEMBL document CHEMBL1201862, “PubChem BioAssay data set” (2004).
